Among the data in patent publication US8796463B2 (priority 2009, dated 2014) are logp, Efficacy % and chromatographic logP values, retold here.

Where “and” joins values, the source holds several entries; their conditions need not be identical. Identical values can stand only once.

The nature of data set [1]: log P by HPLC on reversed phase columns (EEC directive 79/831 Annex V.A8). It is filed as physicochemical. The settings on record: for logp: pH 2.7, 0.1% formic acid in water / acetonitrile gradient; for chromatographic logP: reversed phase HPLC column, pH 2.7, formic acid eluent, reported in preparation example, read-out: log P(HCOOH). The method, then: Measurement of log P values was performed according EEC directive 79/831 Annex V.A8 by HPLC (High Performance Liquid Chromatography) on reversed phase columns with the following method:
measurement of LC-MS was done at pH 2.7 with 0.1% formic acid in water and with acetonitrile (contains 0.1% formic acid) as eluent with a linear gradient from 10% acetonitrle to 95% acetonitrile.
Calibration was done with not branched alkan2-ones (with 3 to 16 carbon atoms) with known log P-values (measurement of log P values using retention times with linear interpolation between successive alkanones). lambda-maX-values were determined using UV-spectra from 200 nm to 400 nm and the peak values of the chromatographic signals.

Data set [2] relates to Plasmopara viticola. Put plainly: Plasmopara test (grapevines) / preventive. It counts as in vivo. The settings on record: preventive spray, 10 ppm of active ingredient, evaluated 6 days after inoculation. As to the method:
Plasmopara Test (Grapevines)/Preventive
To produce a suitable preparation of active compound, 1 part by weight of active compound is mixed with the stated amounts of solvent and emulsifier, and the concentrate is diluted with water to the desired concentration.
To test for preventive activity, young plants are sprayed with the preparation of active compound at the stated rate of application. After the spray coating has dried on, the plants are inoculated with an aqueous spore suspension of Plasmopara viticola and then remain for 1 day in an incubation cabinet at approximately 20° C. and a relative atmospheric humidity of 100%. The plant is subsequently placed for 4 days in a greenhouse at approximately 21° C. and a relative atmospheric humidity of approximately 90%. The plants are then misted and placed for 1 day in an incubation cabinet.
The test is evaluated 6 days after the inoculation. 0% means an efficacy which corresponds to that of the untreated control, while an efficacy of 100% means that no disease is observed.

For data set [3], the system named is Phytophthora infestans. It is filed as in vivo. The conditions noted are these: tomato, preventive spray, 100 ppm of active ingredient, evaluated 7 days after inoculation.
The test system of data set [4] is Pythium ultimum. Kind of data set: Pythium test (cotton) / seed treatment. It is filed as in vivo. The settings on record: 10 g/dt seed of active ingredient, emerged seedlings after 7 days. The method, then:
Pythium Test (Cotton)/Seed Treatment
The test is performed under greenhouse conditions.
Cotton seeds, treated with the active compound or compound combinations, solved in N-methyl-2-pyrrolidon and diluted with water to the desired dosages, were sown in 6*6 cm pots containing 4 cm of a 1:1 mix of steamed field soil and sand.
Perlite was incubated with mycelium fragments of Pythium ultimum. 1 ml of infected perlite was scattered between the treated cotton seeds. Seeds were then covered by light expanded clay aggregate. Pots were incubated in the greenhouse 7 days at 20° C. and 80% relative humidity.
Assessment consisted of counting of emerged seedlings. 0% means an efficacy which corresponds to that of the control, while an efficacy of 100% means that all seedlings have emerged.

`Cn1nnnc1C(=NOCc1cccc(NC(=O)C2CCc3ccccc3O2)n1)c1ccccc1` (stereo not drawn) [Example 5] gave a logp in data set [1] of 4.01. The Efficacy % in data set [2] was found to be 89%; in data set [3], 95%.
Molecule `Cc1ccc2c(c1)OC(C(=O)Nc1cccc(CON=C(c3ccccc3)c3nnnn3C)n1)CO2` (stereo not drawn) [Example 7] came in with a logp in data set [1] of 4.03. For the same molecule, the Efficacy % is 75% in data set [2] and 95% in data set [3].
For the molecule `Cc1cccc2c1OC(C(=O)Nc1cccc(CON=C(c3ccccc3)c3nnnn3C)n1)CO2` (stereo not drawn) [Example 8], in data set [1], the logp worked out at 4.08. Besides, the Efficacy % was 87% in data set [2] and 95% in data set [3].
`Cn1nnnc1C(=NOCc1cccc(NC(=O)C2COc3ccccc3O2)n1)c1ccccc1` (stereo not drawn) [Example 9] returned a logp in data set [1] of 3.69. Also, the Efficacy % was determined as 97% in data set [2] and 85% in data set [3].
As for `Cn1nnnc1C(=NOCc1csc(NC(=O)C2CCc3ccccc3O2)n1)c1ccccc1` (stereo not drawn) [Example 10, N-{4-[({[(1-methyl-1H-tetrazol-5-yl)(phenyl)methylene]amino}oxy)methyl]-1,3-thiazol-2-yl}chromane-2-carboxamide], the chromatographic logP in data set [1] was found to be 3.78. In addition, the Efficacy % is 86% in data set [4], 100% in data set [2] and 100% in data set [3].
`Cn1nnnc1C(=NOCc1csc(NC(=O)C2COc3ccccc3O2)n1)c1ccccc1` (stereo not drawn) [Example 11] came in with a logp in data set [1] of 3.46. Moreover, the values for the Efficacy % in data set [4], in data set [2] and in data set [3] were 77%, 98% and 95%, respectively.
In turn, `Cc1ccc2c(c1)OC(C(=O)Nc1cccc(CON=C(c3ccccc3)n3nnnc3C)n1)CO2` (stereo not drawn) [Example 26] yielded a logp in data set [1] of 4.11. Further, the Efficacy % in data set [3] amounted to 95%.
On to `Cc1cccc2c1OC(C(=O)Nc1cccc(CON=C(c3ccccc3)n3nnnc3C)n1)CO2` (stereo not drawn) [Example 27], for which the logp in data set [1] turned out to be 4.15. The Efficacy % in data set [3] came out at 95%.
`Cc1nnnn1C(=NOCc1cccc(NC(=O)C2COc3ccccc3O2)n1)c1ccccc1` (stereo not drawn) [Example 28]: in data set [1], the logp is given as 3.78. Also, the Efficacy % in data set [3] was 98%.
In turn, `Cc1nnnn1C(=NOCc1cccc(NC(=O)C2CC(=O)c3cc(F)ccc3O2)n1)c1ccccc1` (stereo not drawn) [Example 29] returned a logp in data set [1] of 3.53. This molecule also showed an Efficacy % in data set [3] of 90%.
`COc1cccc2c1OC(C(=O)Nc1nc(CON=C(c3ccccc3)n3nnnc3C)cs1)CC2` (stereo not drawn) [Example 30] showed a logp in data set [1] of 3.69. For the same molecule, the Efficacy % in data set [3] is on record as 95%.
In data set [1], `Cc1nnnn1C(=NOCc1csc(NC(=O)C2CCc3cc(F)ccc3O2)n1)c1ccccc1` (stereo not drawn) [Example 31] had a logp of 3.87. The molecule also showed an Efficacy % in data set [3] of 95%.
For `Cc1nnnn1C(=NOCc1csc(NC(=O)C2CCc3ccccc3O2)n1)c1ccccc1` (stereo not drawn) [Example 32] the same measures were 3.83 and 95%.
As to `Cc1nnnn1C(=NOCc1csc(NC(=O)C2COc3ccc(C(C)(C)C)cc3O2)n1)c1ccccc1` (stereo not drawn) [Example 33], in data set [1], the logp came out at 4.67. For the same molecule, in data set [3], the Efficacy % was 90%.
In data set [1], `Cc1ccc2c(c1)OC(C(=O)Nc1nc(CON=C(c3ccccc3)n3nnnc3C)cs1)CO2` (stereo not drawn) [Example 34] displayed a logp of 3.83. The Efficacy % in data set [3] came out at 95%.
In data set [1], `Cc1cccc2c1OC(C(=O)Nc1nc(CON=C(c3ccccc3)n3nnnc3C)cs1)CO2` (stereo not drawn) [Example 35] yielded a logp of 3.87. The molecule further came in with an Efficacy % in data set [3] of 95%.
As to `Cc1nnnn1C(=NOCc1csc(NC(=O)C2COc3ccccc3O2)n1)c1ccccc1` (stereo not drawn) [Example 36], the logp in data set [1] worked out at 3.51. Besides, in data set [3], the Efficacy % is reported as 95%.
On to `Cc1nnnn1C(=NOCc1csc(NC(=O)C2CC(=O)c3cc(F)ccc3O2)n1)c1ccccc1` (stereo not drawn) [Example 37], for which the logp in data set [1] was determined as 3.33. The Efficacy % in data set [3] is 95%.
`Cc1nnnn1C(=NOCc1csc(NC(=O)C2CCc3cc(I)ccc3O2)n1)c1ccccc1` (stereo not drawn) [Example 38] yielded a logp in data set [1] of 4.49. The molecule also yielded an Efficacy % in data set [3] of 95%.
For `COc1ccc2c(c1)OC(C(=O)Nc1cccc(CON=C(c3ccccc3)c3nnnn3C)n1)CC2` (stereo not drawn) [Example 39] the same measures were 3.96 and 95%.
Take `COc1ccc2c(c1)OC(C(=O)Nc1nc(CON=C(c3ccccc3)c3nnnn3C)cs1)CC2` (stereo not drawn) [Example 40]: the logp in data set [1] is 3.78. For the same molecule, the values for the Efficacy % in data set [2] and in data set [3] were 96% and 98%, respectively.
`Cn1nnnc1C(=NOCc1cccc(NC(=O)C2Cc3ccccc3O2)n1)c1ccccc1` (stereo not drawn) [Example 41, N-{6-[({[(1-methyl-1H-tetrazol-5-yl)(phenyl)methylene]amino}oxy)methyl]pyridin-2-yl}-2,3-dihydro-1-benzofuran-2-carboxamide]: the chromatographic logP in data set [1] is 3.67. The Efficacy % in data set [4] was 92%; in data set [2] it was 97% and 91%; in data set [3], 89%.
In data set [1], `Cn1nnnc1C(=NOCc1csc(NC(=O)C2Cc3ccccc3O2)n1)c1ccccc1` (stereo not drawn) [Example 42] gave a logp of 3.39. The Efficacy % in data set [2] was found to be 100%; in data set [3], 89%.
In data set [1], `Cc1nnnn1C(=NOCc1cccc(NC(=O)c2cc(=O)c3ccccc3o2)n1)c1ccccc1` [Example 43] showed a logp of 3.33. The molecule also returned an Efficacy % in data set [3] of 85%.
The molecule `Cc1nnnn1C(=NOCc1csc(NC(=O)c2cc(=O)c3ccccc3o2)n1)c1ccccc1` [Example 44] had a logp in data set [1] of 3.21. This molecule registered an Efficacy % in data set [3] of 95%.
Consider `Cc1nnnn1C(=NOCc1csc(NC(=O)C2Cc3ccccc3O2)n1)c1ccccc1` (stereo not drawn) [Example 45], for which the logp in data set [1] worked out at 3.44. The Efficacy % in data set [2] is listed as 96%; in data set [3], 98%.
In turn, `Cc1nnnn1C(=NOCc1csc(NC(=O)C2Oc3ccccc3O2)n1)c1ccccc1` [Example 46] displayed a logp in data set [1] of 3.31. Further, the Efficacy % in data set [3] is recorded as 75%.
For `Cn1nnnc1C(=NOCc1csc(NC(=O)c2cc(=O)c3ccccc3o2)n1)c1ccccc1` [Example 47] the same measures were 3.17 and 70%.
Take `Cn1nnnc1C(=NOCc1csc(NC(=O)C2Oc3ccccc3O2)n1)c1ccccc1` [Example 48]: in data set [1], the logp was 3.29. In data set [3], this molecule displayed an Efficacy % of 80%.
Molecule `Cc1nnnn1C(=NOCc1cccc(NC(=O)C2Cc3ccccc3O2)n1)c1ccccc1` (stereo not drawn) [Example 56] registered a logp in data set [1] of 3.71. Further, the results for the Efficacy % in data set [2] and in data set [3] were 85% and 100%, respectively.
In the case of `Cc1nnnn1C(=NOCc1cccc(NC(=O)C2Oc3ccccc3O2)n1)c1ccccc1` [Example 57], the logp in data set [1] worked out at 3.48. The molecule also showed an Efficacy % in data set [3] of 88%.
For `Cn1nnnc1C(=NOCc1cccc(NC(=O)c2cc(=O)c3ccccc3o2)n1)c1ccccc1` [Example 59] the same measures were 3.27 and 95%.
In data set [1], `Cn1nnnc1C(=NOCc1cccc(NC(=O)C2Oc3ccccc3O2)n1)c1ccccc1` [Example 60] gave a logp of 3.44. Besides, the Efficacy % was found to be 97% in data set [2] and 95% in data set [3].
